Laboratory results taken from patent US5658924A, “1,8-naphthyridin-2-one derivative and use thereof” (The Green Cross Corporation, priority 1995, dated 1997).

What was measured:
[1] = test system: histamine-induced contraction of bronchial specimen; assay: Suppression of histamine-induced contraction of bronchial specimen extracted from guinea pig; design: species or system guinea pig (male Hartley); conditions: histamine 3 μM
Procedure: (§1) Suppression of histamine or leukotriene D4 -induced contraction of bronchial specimen extracted from guinea pig
(§2) Male Hartley guinea pigs weighing 250-450 g were fainted by hitting in the head and exsanguinated to death. The trachea was removed and ring specimens were prepared by a conventional method. The specimens were kept at 37° C. and suspended in a Krebs-Ringer solution (10 ml) aerated with a 95% O2 -5% CO2 mixed gas, and isometric tension was measured. The specimens were contracted with histamine (3 μM) or leukotriene D4 (1 nM). When the reaction became stable, a drug dissolved in dimethyl sulfoxide was added to the Kreb's Ringer solution. The relaxation ratio was calculated based on the base line before the contraction, which was taken as 100% relaxation.

[2] = test system: leukotriene D4-induced contraction of bronchial specimen; assay: Suppression of leukotriene D4-induced contraction of bronchial specimen extracted from guinea pig; design: species or system guinea pig (male Hartley); conditions: leukotriene D4 1 nM
Procedure: as §1, §2

PDE isozyme I = assay: Inhibition of PDE (isozyme I); type: biochemical; conditions: pig ventricular muscle, [3H]-cAMP substrate; read-out: PDE Inhibitory activity (IC5 :μM), PDE isozyme I
Procedure: (§3) Inhibition of PDE by 1,8-naphthyridin-2-one derivative
(§4) The centrifugation supernatant of the homogenate of pig ventricular muscle was separated into isozyme by ortho-(diethylaminoethyl)-cellulose chromatography and used as an enzyme source. Respective isozymes were confirmed by the reaction with respective activity regulators. [^3 H]-cAMP was used as a substrate and the reaction was carried out in the presence of 5'-nucleotidase. A sample was dissolved in dimethyl sulfoxide and added to the reaction mixture. [^3 H]-5'-AMP produced by PDE was decomposed into [^3 H]-adenosine by 5'-nucleotidase. An anion exchange resin was added to adsorb the unreacted [^3 H]-cAMP, whereby the reaction was stopped. The [^3 H]-adenosine radioactivity of the supernatant was determined, based on which the PDE inhibitory action was calculated.

PDE isozyme II = target: T1, PDE isozyme II (Sus scrofa, UniProt F1SUV3); assay: Inhibition of PDE (isozyme II); type: biochemical; conditions: pig ventricular muscle, [3H]-cAMP substrate; read-out: PDE Inhibitory activity (IC5 :μM), PDE isozyme II
T1 construct: centrifugation supernatant of the homogenate of pig ventricular muscle; from tissue; host or cells: pig ventricular muscle, supernatant of homogenate, DEAE-cellulose fraction
T1 sequence (F1SUV3 1-945): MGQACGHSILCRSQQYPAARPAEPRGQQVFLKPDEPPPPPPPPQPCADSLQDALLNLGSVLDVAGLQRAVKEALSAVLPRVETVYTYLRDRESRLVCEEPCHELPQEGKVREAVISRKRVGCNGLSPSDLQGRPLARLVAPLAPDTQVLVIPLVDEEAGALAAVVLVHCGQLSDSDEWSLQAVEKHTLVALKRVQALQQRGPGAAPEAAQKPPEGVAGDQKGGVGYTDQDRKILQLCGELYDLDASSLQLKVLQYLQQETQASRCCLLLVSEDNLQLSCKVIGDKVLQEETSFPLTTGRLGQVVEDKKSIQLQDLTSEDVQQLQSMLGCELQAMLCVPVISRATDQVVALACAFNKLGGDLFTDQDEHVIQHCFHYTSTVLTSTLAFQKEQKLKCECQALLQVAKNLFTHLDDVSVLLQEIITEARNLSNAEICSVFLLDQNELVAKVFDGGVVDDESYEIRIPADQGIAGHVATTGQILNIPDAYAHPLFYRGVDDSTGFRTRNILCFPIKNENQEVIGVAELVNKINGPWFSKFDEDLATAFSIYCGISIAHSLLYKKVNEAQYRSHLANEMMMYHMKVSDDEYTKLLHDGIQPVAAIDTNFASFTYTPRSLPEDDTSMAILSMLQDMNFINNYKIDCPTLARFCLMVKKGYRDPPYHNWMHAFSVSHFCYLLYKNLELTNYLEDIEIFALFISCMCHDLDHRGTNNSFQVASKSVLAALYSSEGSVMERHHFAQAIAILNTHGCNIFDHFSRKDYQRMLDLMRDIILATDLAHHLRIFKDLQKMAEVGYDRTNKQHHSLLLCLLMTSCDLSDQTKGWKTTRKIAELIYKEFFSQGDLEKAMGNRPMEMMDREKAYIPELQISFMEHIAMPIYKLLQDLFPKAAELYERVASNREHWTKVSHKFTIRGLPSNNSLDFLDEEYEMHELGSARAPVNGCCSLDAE
Procedure: as §3, §4

PDE isozyme III = target: T2, PDE isozyme III (Sus scrofa, UniProt I3L6S5); assay: Inhibition of PDE (isozyme III); type: biochemical; conditions: pig ventricular muscle, [3H]-cAMP substrate; read-out: PDE Inhibitory activity (IC5 :μM), PDE isozyme III
T2 construct: centrifugation supernatant of the homogenate of pig ventricular muscle; from tissue; host or cells: pig ventricular muscle, supernatant of homogenate, DEAE-cellulose fraction
T2 sequence (I3L6S5 1-1145): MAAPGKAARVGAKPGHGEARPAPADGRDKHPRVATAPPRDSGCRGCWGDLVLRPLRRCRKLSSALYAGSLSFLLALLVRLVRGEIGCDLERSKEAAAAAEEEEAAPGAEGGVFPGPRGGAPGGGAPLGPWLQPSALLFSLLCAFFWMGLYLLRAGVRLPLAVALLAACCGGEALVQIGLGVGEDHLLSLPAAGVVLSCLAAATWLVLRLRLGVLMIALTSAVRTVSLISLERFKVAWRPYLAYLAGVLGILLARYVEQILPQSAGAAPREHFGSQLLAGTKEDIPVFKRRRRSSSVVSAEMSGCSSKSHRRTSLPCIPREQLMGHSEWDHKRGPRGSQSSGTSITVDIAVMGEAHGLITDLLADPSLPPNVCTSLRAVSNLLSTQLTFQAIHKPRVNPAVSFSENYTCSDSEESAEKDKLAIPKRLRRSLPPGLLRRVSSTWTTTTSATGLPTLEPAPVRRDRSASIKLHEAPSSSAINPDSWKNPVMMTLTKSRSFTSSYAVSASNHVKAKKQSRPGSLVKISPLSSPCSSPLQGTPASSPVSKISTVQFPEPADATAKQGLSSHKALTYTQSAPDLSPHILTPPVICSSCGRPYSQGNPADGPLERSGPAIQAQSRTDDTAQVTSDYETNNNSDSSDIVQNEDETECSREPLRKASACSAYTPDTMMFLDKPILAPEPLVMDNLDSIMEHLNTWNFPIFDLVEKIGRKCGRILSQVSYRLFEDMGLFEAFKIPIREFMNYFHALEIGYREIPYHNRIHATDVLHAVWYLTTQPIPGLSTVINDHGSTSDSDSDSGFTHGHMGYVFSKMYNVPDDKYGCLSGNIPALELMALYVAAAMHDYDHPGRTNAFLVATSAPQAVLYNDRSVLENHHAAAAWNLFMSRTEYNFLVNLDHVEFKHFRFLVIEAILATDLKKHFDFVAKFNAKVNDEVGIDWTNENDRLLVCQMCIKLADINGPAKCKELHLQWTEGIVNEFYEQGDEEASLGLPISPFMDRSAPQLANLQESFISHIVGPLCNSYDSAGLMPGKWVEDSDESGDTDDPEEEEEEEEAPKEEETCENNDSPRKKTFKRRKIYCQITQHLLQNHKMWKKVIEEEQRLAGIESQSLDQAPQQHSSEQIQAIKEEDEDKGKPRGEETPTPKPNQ
Procedure: as §3, §4

PDE isozyme IV = assay: Inhibition of PDE (isozyme IV); type: biochemical; conditions: pig ventricular muscle, [3H]-cAMP substrate; read-out: PDE Inhibitory activity (IC5 :μM), PDE isozyme IV
Procedure: as §3, §4

endothelin [3] = assay: Prevention of lethal effect on mice induced by intravenous administration of endothelin; type: in vivo, mice (male ICR)
Procedure: Prevention of lethal effect on mice induced by intravenous administration of endothelin
Male ICR mice (6-7 weeks of age) were used without anesthetization. A solvent (physiological saline or 0.5% carboxymethylcellulose in physiological saline) or a medium, in which a drug had been dissolved or suspended, was administered in a dose of 50 μl /10 g body weight via the tail vein of the mice. Five minutes later, 5 nmol/kg of endothelin (Peptide Institute) dissolved in the same amount of a solvent was intravenously administered. The mice were monitored for 60 minutes after the endothelin administration and the number of dead animals and the latency (seconds) until death were determined. […] The test results of Compound 2 are representatively shown.

endothelin [4] = assay: Effect against endothelin-induced pressor activity in rats; type: in vivo, rats (male SD); conditions: 10 mg/kg i.v., 10 min after endothelin 1 nmol/kg; blood pressure 20 min after endothelin
Procedure: Effect against endothelin-induced pressor activity in rats
Male SD rats (6 to 8 weeks of age) were anesthetized with sodium pentobarbital (60 mg/kg, i.p.), and a polyethylene catheter was inserted in the left carotid artery, which was connected to a pressure transducer (TP-400T, manufactured by Nihon Koden), and the blood pressure was measured via a polygraph (RM-6000 manufactured by Nihon Koden).
The pressor activity was induced by administering endothelin (1 nmol/kg) dissolved in a solvent, from the femoral vein. With regard to the animals ascertained to have increased blood pressure, a solvent or a medium, in which a drug had been dissolved or suspended, was administered in a dose of 1 ml/kg from the femoral vein of the rats 10 minutes after the endothelin administration, and the pressor activity was observed thereafter. The representative test results of Compound 2 are shown.
The results are shown in Table 14. in the Table, changes in blood pressure 20 minutes after the endothelin administration was compared with the value obtained before the endothelin administration.

[5] = test system: endothelin-induced contraction of extracted pig coronary artery; assay: Suppression of endothelin-induced contraction in extracted pig coronary artery; conditions: 10 μM
Procedure: Suppression of endothelin-induced contraction in extracted pig coronary artery
Rectangular specimens of pig left anterior descendens coronary artery (endothelial cells removed) were used. The specimens were heated to 37° C. and suspended in a Tyrode's solution (10 ml) aerated with a 95% O2 -5% CO2 mixed gas under the resting tension of 1.5 g, and changes in isometric tension were determined. The specimens were contracted with 10 nM endothelin and when the reaction became stable, a drug dissolved in dimethyl sulfoxide was added to the. Tyrode's solution. The relaxation ratio was calculated relative to the base line before the contraction, which was taken as 100% relaxation. The representative test results of Compound 2 (administration concentration: 10 μM) are shown.

Acute toxicity in mice = type: in vivo, mice (ICR); conditions: mouse, in vivo, po, mice; estimated; read-out: oral lethal dose 50% (LD50)
Procedure: (§5) Acute toxicity of 1,8-naphthyridin-2-one derivative in mice
(§6) ICR mice (6-8 weeks of age, 7 per group) were fasted overnight and used for the experiment. A solvent (0.5% aqueous solution of carboxymethylcellulose) or a medium, in which a drug had been dissolved or suspended, was orally administered to mice in a dose of 0.1 ml/10 g body weight, and life or death of the animals was monitored for 72 hours after the administration. The representative test results of Compound 2 (300 mg/kg p.o.) are shown.

mice = assay: Acute toxicity in mice; type: in vivo, mice (ICR); conditions: 300 mg/kg p.o., 72 hours
Procedure: as §5, §6

| SMILES | Suppression of contraction % (HS) ([1]; 1 μM) [%] | Suppression of contraction % (LT) ([2]; 1 μM) [%] | IC50 (PDE isozyme I) [µM] | IC50 (PDE isozyme II) [µM] | IC50 (PDE isozyme III) [µM] | IC50 (PDE isozyme IV) [µM] | Suppression of contraction % (HS) ([1]; 10 μM) [%] | Suppression of contraction % (LT) ([2]; 10 μM) [%] | Prevention of death: suppression of death (%) (endothelin [3]; 30 mg/kg i.v., 5 min before endothelin 5 nmol/kg i.v., 60 min monitoring) | Prevention of death: prolongation of latency (%) (endothelin [3]; 30 mg/kg i.v., 5 min before endothelin 5 nmol/kg i.v., ** P<0.01 relative to control, Tukey) | suppression of the death caused by endothelin and prolonging action of the latency until death (endothelin [3]; i.v.) | Endothelin-induced pressor activity, Suppression % (endothelin [4]) [%] | suppressive action on the endothelin-induced contraction [5] | Suppression % of endothelin-induced contraction ([5]; contracted with 10 nM endothelin, endothelial cells removed) [%] | LD50 at 72 h (Acute toxicity in mice) [mg/kg] | Death (number of animals) (mice; 7 animals administered) | acute toxicity test result (mice) |
| --- | --- | --- | --- | --- | --- | --- | --- | --- | --- | --- | --- | --- | --- | --- | --- | --- | --- |
| O=c1c(-c2ccccn2)cc2cccnc2n1CC1CC1 [Compound 3] | 60 | 100 | 66 | 18 | 80 | 1.4 |  |  |  |  |  |  |  |  |  |  |  |
| Cc1ccccc1-c1cc2cccnc2n(Cc2ccccc2F)c1=O [Compound 1, 1-(2-fluorobenzyl)-3-(2-methylphenyl)-1,8-naphthyridin-2(1H)-one] |  |  | > 50 | > 50 | > 50 | 0.4 | 100 | 88 |  |  |  |  |  |  |  |  |  |
| C=CCn1c(=O)c(-c2ccc(OC)cc2)cc2cccnc21 [Compound 4] |  |  | 49 | > 50 | 44 | 0.38 | 100 | 100 |  |  |  |  |  |  |  |  |  |
| Cn1c(=O)c(-c2ccccc2)cc2cccnc21 [Compound 2] |  |  | 29 | 39 | > 50 | 1.6 | 93 |  | 52 | 305 | showed suppression of the death caused by endothelin and a prolonging action of the latency until death | 38.5 | showed evident suppressive action | 74 | ≥ 300 | 0 | tested negative in the acute toxicity test |
| CC(C)CCn1c(=O)c(-c2ccc(Cl)cc2)cc2cccnc21 [Compound 5] |  |  | > 50 | > 50 | > 50 | 0.35 |  |  |  |  |  |  |  |  |  |  |  |
